Molecules are shown by their SMILES.

Chain of human M1 receptor (P11229 whole entry): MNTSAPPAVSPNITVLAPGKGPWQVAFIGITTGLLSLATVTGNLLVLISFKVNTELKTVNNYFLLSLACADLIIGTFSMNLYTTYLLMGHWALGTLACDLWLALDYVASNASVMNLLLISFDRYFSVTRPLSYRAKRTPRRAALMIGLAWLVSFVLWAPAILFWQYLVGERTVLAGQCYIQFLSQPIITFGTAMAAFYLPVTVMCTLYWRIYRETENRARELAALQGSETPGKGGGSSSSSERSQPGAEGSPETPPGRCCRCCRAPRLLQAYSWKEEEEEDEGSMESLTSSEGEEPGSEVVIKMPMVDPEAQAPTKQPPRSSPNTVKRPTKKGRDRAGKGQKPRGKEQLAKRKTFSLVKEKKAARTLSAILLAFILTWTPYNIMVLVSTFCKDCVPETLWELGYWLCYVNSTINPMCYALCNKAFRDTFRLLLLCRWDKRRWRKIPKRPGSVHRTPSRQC

The first experiment addresses human M1 receptor (Homo sapiens (Human), UniProt P11229). The experiment is described as follows: In vitro functional assay of muscarinic acetylcholine receptor activity, aequorin calcium flux, reversal of EC80 acetylcholine. It counts as cell-based.
Conditions: not given
The protocol: CHO-K1 cells stably expressing human M1 receptor with aequorin (Perkin Elmer) were grown in F12 media (Gibco) containing 10% FBS (ATCC), 0.4 mg/mL geneticin (Sigma-Aldrich) and 0.25 mg/mL Zeocin (Invitrogen). Cells were grown as per the manufacturer's protocol. For compound testing, cells were grown to confluency and detached gently with Accutase (Sigma-Aldrich) followed by centrifugation for 5 min at 150×g. Cells were then re-suspended in assay buffer (i.e. DMEM/F-12 HEPES without phenol red (Invitrogen) with 0.1% BSA (Sigma-Aldrich)) at a density of 5×10^6 cells/ml. Under sterile conditions, 5 μM coelenterazine (Invitrogen) was added to the cells, mixed, then incubated at room temperature protected from light, with gentle agitation, for 4 h.
Primary compound plates were prepared in 100% DMSO in opaque 96-well plates (VWR) and serially diluted in half log increments. Secondary compound plates were prepared at 3× concentration in assay buffer. Compounds were added to white, clear bottom tissue culture treated 96-well plates (Fisher Scientific). Coelenterazine-loaded cells were then added at 5×10^5 cells/well.
Compounds and cells were incubated at room temperature for 30 min in the dark. Acetylcholine at the EC80 concentration was added and calcium flux measured using a FlexStation 3 (Molecular Devices). Sigmoidal dose-response curves were generated by measuring luminescence over 40 sec and calculating the area under the curve. Dose response curves and IC50 values were generated using Prism (GraphPad). Compounds were tested at a final concentration range of 100 pM to 10 μM in 0.1% DMSO.
On the technique in general: Calcium assays in cells follow changes in intracellular calcium, usually with a dye or a luminescent sensor.
For the compound `COc1cc(F)cc(S(=O)(=O)CCC(=O)N2CC3CCC(C2)N3c2ccc(C#N)cn2)c1` [Example 11, 6-{3-[3-(3-fluoro-5-methoxybenzenesulfonyl)propanoyl]-3,8-diazabicyclo [3.2.1]octan-8-yl}pyridine-3-carbonitrile], the half-inhibitory concentration (IC50) is 10 to 100 nM. Still for that read-out and setting: with `COc1cccc(S(=O)(=O)CCC(=O)N2CC3CCC(C2)N3c2ccc(C)nn2)c1` [Example 9, 3-(3-methoxybenzenesulfonyl)-1-[8-(6-methylpyridazin-3-yl)-3,8-diazabicyclo[3.2.1]octan-3-yl]propan-1-one] the figure was 100 to 1000 nM. Still for that read-out and setting: under `N#Cc1ccc(N2C3CCC2CN(C(=O)CCS(=O)(=O)c2cc(F)cc(F)c2)C3)nc1` [Example 8, 6-{3-[3-(3,5-difluorobenzenesulfonyl)propanoyl]-3,8-diazabicyclo [3.2.1]octan-8-yl}pyridine-3-carbonitrile] stands 10 to 100 nM; under `N#Cc1ccc(N2C3CCC2CN(C(=O)CCS(=O)(=O)c2cccnc2C2CC2)C3)nc1` [Example 27, 6-(3-{3-[(2-cyclopropylpyridin-3-yl)sulfonyl]propanoyl}-3,8-diazabicyclo[3.2.1]octan-8-yl)pyridine-3-carbonitrile], 10 to 100 nM; under `CC(F)(F)c1ccccc1S(=O)(=O)CCC(=O)N1CC2CCC(C1)N2c1ccc(C#N)cn1` [Example 31, 6-(3-(3-((2-(1,1-difluoroethyl)phenyl)sulfonyl)propanoyl)-3,8-diazabicyclo [3.2.1]octan-8-yl)nicotinonitrile], 100 to 1000 nM. On the same count and under the same terms, under `N#Cc1ccc(N2C3CCC2CN(C(=O)CCS(=O)(=O)c2ccccc2OC(F)(F)F)C3)nc1` [Example 30, 6-(3-(3-((2-(trifluoromethoxy)phenyl)sulfonyl)propanoyl)-3,8-diazabicyclo-[3.2.1]octan-8-yl)nicotinonitrile] stands 100 to 1000 nM; under `COc1cccc(S(=O)(=O)CCC(=O)N2CC3CCC(C2)N3c2ccc(C#N)c(F)c2)c1` [Example 20, 2-fluoro-4-{3-[3-(3-methoxybenzenesulfonyl)propanoyl]-3,8-diazabicyclo [3.2.1]octan-8-yl}benzonitrile], 10 to 100 nM. As to `COc1c(F)cccc1S(=O)(=O)CCC(=O)N1CC2CCC(C1)N2c1ccc(C#N)cn1` [Example 14, 6-{3-[3-(3-fluoro-2-methoxybenzenesulfonyl)propanoyl]-3,8-diazabicyclo [3.2.1]octan-8-yl}pyridine-3-carbonitrile], the IC50 fell in the range of 10 to 100 nM. The same measure, in the same setting: with `N#Cc1ccc(N2C3CCC2CN(C(=O)CCS(=O)(=O)c2ccccc2C(F)F)C3)nc1` [Example 26, 6-(3-{3-[2-(difluoromethyl)benzene-sulfonyl]propanoyl}-3,8-diazabicyclo-[3.2.1]octan-8-yl)pyridine-3-carbonitrile] the figure was 100 to 1000 nM; with `N#Cc1ccc(N2C3CCC2CN(C(=O)CCS(=O)(=O)c2ncccc2C2CC2)C3)nc1` [Example 23, 6-(3-{3-[(3-cyclopropylpyridin-2-yl)sulfonyl]propanoyl}-3,8-diazabicyclo[3.2.1]octan-8-yl)pyridine-3-carbonitrile], 100 to 1000 nM; with `N#Cc1ccc(N2C3CCC2CN(C(=O)CCS(=O)(=O)c2ccccc2C(F)(F)F)C3)nc1` [Example 29, 6-(3-(3-((2-(trifluoromethyl)phenyl)sulfonyl)propanoyl)-3,8-diazabicyclo[3.2.1]octan-8-yl)nicotinonitrile], 100 to 1000 nM. Same read-out and setting: with `N#Cc1ccc(N2C3CCC2CN(C(=O)CCS(=O)(=O)c2ccccc2C2CC2(F)F)C3)nc1` (racemic) [Example 5, 6-(3-(3-((2-(2,2-difluorocyclopropyl)phenyl)-sulfonyl)-propanoyl)-3,8-diazabicyclo[3.2.1]octan-8-yl)nicotinonitrile] the figure was 10 to 100 nM; with `COc1cc(S(=O)(=O)CCC(=O)N2CC3CCC(C2)N3c2ccc(C#N)cn2)ccn1` [Example 15, 6-(3-{3-[(2-methoxypyridin-4-yl)sulfonyl]propanoyl}-3,8-diazabicyclo[3.2.1]octan-8-yl)pyridine-3-carbonitrile], 10 to 100 nM. Still for that read-out and setting: with `COc1cccc(S(=O)(=O)CCC(=O)N2CC3CCC(C2)N3c2ccc(C(F)(F)F)cn2)c1` [Example 16, 3-(3-methoxybenzenesulfonyl)-1-{8-[5-(trifluoromethyl)pyridin-2-yl]-3,8-diazabicyclo[3.2.1]octan-3-yl}propan-1-one] the figure was 100 to 1000 nM; with `Cc1ccc(F)cc1S(=O)(=O)CCC(=O)N1CC2CCC(C1)N2c1ccc(C#N)cn1` [Example 32, 6-(3-(3-((5-fluoro-2-methylphenyl)sulfonyl)propanoyl)-3,8-diazabicyclo [3.2.1]octan-8-yl)nicotinonitrile], 100 to 1000 nM.

In the case of `N#Cc1ccc(N2C3CCC2CN(C(=O)CCS(=O)(=O)c2ccccc2[C@@H]2CC2(F)F)C3)nc1` (single isomer, unassigned) [Example 36], the IC50 was 100 to 1000 nM. With `N#Cc1ccc(N2C3CCC2CN(C(=O)CCS(=O)(=O)c2ccnc(C4CC4)c2)C3)nc1` [Example 25, 6-(3-{3-[(2-cyclopropyl-pyridin-4-yl)sulfonyl]propanoyl}-3,8-diazabicyclo [3.2.1]octan-8-yl)pyridine-3-carbonitrile], the IC50 is 100 to 1000 nM. Same read-out and setting: under `COc1cccc(S(=O)(=O)CCC(=O)N2CC3CCC(C2)N3c2ccc(F)c(C#N)c2)c1` [Example 19, 2-fluoro-5-{3-[3-(3-methoxybenzenesulfonyl)propanoyl]-3,8-diazabicyclo [3.2.1]octan-8-yl}benzonitrile] stands 100 to 1000 nM; under `Cc1cc(F)cc(S(=O)(=O)CCC(=O)N2CC3CCC(C2)N3c2ccc(C#N)cn2)c1` [Example 33, 6-(3-(3-((3-fluoro-5-methylphenyl)sulfonyl)propanoyl)-3,8-diazabicyclo [3.2.1]octan-8-yl)nicotinonitrile], 100 to 1000 nM; under `N#Cc1ccc(N2C3CCC2CN(C(=O)CCS(=O)(=O)c2ccccc2Br)C3)nc1` [Example 28, 6-(3-(3-((2-bromophenyl)sulfonyl)propanoyl)-3,8-diazabicyclo [3.2.1]octan-8-yl)nicotinonitrile], 100 to 1000 nM. Still for that read-out and setting: with `COc1ccc(F)cc1S(=O)(=O)CCC(=O)N1CC2CCC(C1)N2c1ccc(C#N)cn1` [Example 13, 6-{3-[3-(5-fluoro-2-methoxybenzenesulfonyl)propanoyl]-3,8-diazabicyclo [3.2.1]octan-8-yl}pyridine-3-carbonitrile] the figure was 10 to 100 nM; with `COc1ccccc1S(=O)(=O)CCC(=O)N1CC2CCC(C1)N2c1ccc(C#N)cn1` [Example 12, 6-{3-[3-(2-methoxybenzenesulfonyl)propanoyl]-3,8-diazabicyclo [3.2.1]octan-8-yl}pyridine-3-carbonitrile], 10 to 100 nM; with `N#Cc1ccc(N2C3CCC2CN(C(=O)CCS(=O)(=O)c2cccc(Br)c2)C3)nc1` [Example 22, 6-{3-[3-(3-bromobenzenesulfonyl)propanoyl]-3,8-diazabicyclo [3.2.1]octan-8-yl}pyridine-3-carbonitrile], 100 to 1000 nM. For `N#Cc1ccc(N2C3CCC2CN(C(=O)CCS(=O)(=O)c2cccc(F)c2)C3)nc1` [Example 7, 6-{3-[3-(3-fluorobenzenesulfonyl)propanoyl]-3,8-diazabicyclo[3.2.1]octan-8-yl}pyridine-3-carbonitrile], the concentration for half-maximal inhibition (IC50) lay within 10 to 100 nM.

Consider `N#Cc1ccc(N2C3CCC2CN(C(=O)CCS(=O)(=O)c2cccc(OC4CC4)c2)C3)nc1` [Example 21, 6-{3-[3-(3-cyclopropoxybenzenesulfonyl)propanoyl]-3,8-diazabicyclo [3.2.1]octan-8-yl}pyridine-3-carbonitrile], for which the IC50 was 100 to 1000 nM.

The same experiment, now with this note: CHO-K1 cells expressing human M1 receptor with aequorin; acetylcholine at EC80; read-out: M1 IC50.
`N#Cc1ccc(N2C3CCC2CN(C(=O)CCS(=O)(=O)c2cccc(F)c2C2CC2)C3)nc1` [Example 4, 6-(3-(3-((2-cyclopropyl-3-fluorophenyl)sulfonyl)-propanoyl)-3,8-diazabicyclo[3.2.1]octan-8-yl)nicotinonitrile]: the IC50 is under 10 nM.

In the case of `CC(C)(O)c1cc(S(=O)(=O)CCC(=O)N2CC3CCC(C2)N3c2ccc(C#N)cn2)ccc1F` [Example 6, 6-(3-(3-((4-fluoro-3-(2-hydroxypropan-2-yl)phenyl)-sulfonyl)propanoyl)-3,8-diazabicyclo[3.2.1]octan-8-yl)nicotinonitrile], the IC50 fell in the range of 1000 to 10000 nM. For `N#Cc1ccc(N2C3CCC2CN(C(=O)CCCS(=O)(=O)c2ccccc2I)C3)nc1` [Example 1, 6-(3-(4-((2-iodophenyl)sulfonyl)butanoyl)-3,8-diazabicyclo[3.2.1]octan-8-yl)nicotinonitrile], the IC50 is under 10 nM. Same read-out and setting: with `COc1cccc(S(=O)(=O)CCC(=O)N2CC3CCC(C2)N3c2ccc(C)cn2)c1` [Example 18, 3-(3-methoxybenzenesulfonyl)-1-[8-(5-methylpyridin-2-yl)-3,8-diazabicyclo[3.2.1]octan-3-yl]propan-1-one] the figure was 1000 to 10000 nM; with `COc1cccc(S(=O)(=O)CCC(=O)N2CC3CCC(C2)N3c2ccc(C)nc2)c1` [Example 10, 3-(3-methoxybenzenesulfonyl)-1-[8-(6-methylpyridin-3-yl)-3,8-diazabicyclo[3.2.1]octan-3-yl]propan-1-one], 1000 to 10000 nM.

What is called IC50 is the concentration at which inhibition is half-maximal.

For the origin of these results see patent US11752149B2, “Muscarinic acetylcholine M1 receptor antagonists” (Pipeline Therapeutics, Inc., priority 2019, dated 2023).
